Data published in PubChem BioAssay AID2124 (Sanford-Burnham Center for Chemical Genomics, 2009).
Inconclusive results are not listed. Calls of active or inactive are those of the source. The rule behind the calls is not given here; tested in MIN6 cells.

Assays:
[1] = tested on: cells, GFP-channel autofluorescence, high-content imaging; assay: GFP-wavelength compound autofluorescence in cells – imaging, high-content imaging, artefact control, dose response (AID 2124);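 for cell count: cells exposed to compound for 48 hours before fixing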;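 for z-score: cells exposed to compound for 48 hours before fixing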
[2] = as above; settings: cells, GFP-channel autofluorescence, high-content imaging, at 10 µM; for z-score: stronger effect = higher value

Row | Compound | EC50 [1] | cell count [2] | z-score [2]
1 | COc1ccc(/C=C2\CC/C(=C\c3ccc(OC)cc3OC)C2=O)c(OC)c1 | 6.73 µM | 3090 cells | 
2 | C=CCN1C(=O)/C(=C\C=C2\N(C)c3ccccc3C2(C)C)SC1=S | 6.86 µM | 2620 cells | 
3 | CCOC(=O)c1sc2cc([N+](=O)[O-])cc(SCC(C)C)c2c1N | 1.24 µM | 3070 cells | 
4 | Cc1cc2nc3c(=O)n(C4CCCCC4)c(=O)[nH]c3nc2cc1N | 11.8 µM (inactive) | 3150 cells | 
5 | COc1cc2c(cc1OC)C1=CC(=O)C(=O)N1C(C)(C)C2 | 5.78 µM | 2990 cells | 
6 | CN1/C(=C\C=C(/C#N)C(=O)Nc2ccccc2F)C(C)(C)c2ccccc21 | 6.93 µM | 2910 cells | 
7 | Cc1c(-c2ccc(O)cc2)nc2nc(-c3ccccc3)c(-c3ccccc3)nn12 | > 16 µM (inactive) | 3200 cells | 
8 | O=C1S/C(=C\c2ccc(N3CCOCC3)o2)C(=O)N1c1ccccc1 | > 16 µM (inactive) | 1060 cells | 
9 | CCN(CC)c1ccc(/C=C/C(=O)c2ccc(Br)cc2)cc1 | 3.67 µM | 2880 cells | 
10 | CN1CCS/C1=C/C=C1/SC(=S)N(Cc2ccccc2)C1=O | 8.87 µM | 2970 cells | 
11 | CN1/C(=C\C=C2/SC(=S)NC2=O)C(C)(C)c2ccccc21 | 6.13 µM | 147 cells | 
12 | CCN(CC)c1ccc(/C=C(/C#N)C(=O)NC(C)C)o1 | 14.2 µM (inactive) | 3080 cells | 
13 | Cc1cc(/C=C2/C(=O)N(C)C(=S)N2C)ccc1N1CCCC1 | 3.02 µM | 2680 cells | 
14 | CN1CC=C2C(C#N)=C(N)C(C#N)(C#N)C(c3ccsc3)C2C1 (configuration not stated) | > 16 µM (inactive) | 2400 cells | 
15 | Cc1cc(N2CCCC2)ccc1/C=C1\NC(=S)N(C)C1=O | 7.7 µM | 2440 cells | 
16 | O=c1c(Cl)c2oc3ccccc3nc-2c2ccccc12 | 6.42 µM | 2670 cells | 
17 | CCN(CC)c1ccc2cc(C(=O)Nc3ccccn3)c(=O)oc2c1 | 5.37 µM | 3080 cells | 
18 | O=c1oc2c3c4c(cc2c(C(F)(F)F)c1CCN1CCOCC1)CCCN4CCC3 | 8.25 µM | 3400 cells | 
19 | COc1ccc(/C=C2\C(=O)NC(=S)N2C(=O)c2ccc(F)cc2)cc1 | > 16 µM (inactive) | 2980 cells | 
20 | Cc1ccc(N2C(=O)C3C(C(=O)c4ccccc4)=NN(c4ccccc4)C3C2=O)cc1 (configuration not stated) | > 16 µM (inactive) | 2980 cells | 
21 | COc1cc([C@@H]2[C@H]3CN(C)CC=C3C(C#N)=C(N)C2(C#N)C#N)cc2c1OCO2 | 9.32 µM | 3070 cells | 

Row | Compound | EC50 [1] | cell count [2] | z-score [2]
22 | COc1ccc2nc(SCC(C)=O)c(C#N)cc2c1 | 7.2 µM | 2490 cells | 
23 | CCOC(=O)CN1C(=O)S/C(=C/c2ccc(N3CCCCC3)o2)C1=O | 7.22 µM | 3180 cells | 
24 | CCCN1C(=O)/C(=C\C=C2\N(CC)c3ccccc3C2(C)C)SC1=S | 7.93 µM | 2900 cells | 
25 | COc1ccc(C(=O)/C=C/c2ccc(N(C)C)cc2)c(OC)c1 | 9.89 µM | 2380 cells | 
26 | CN1CC=C2C(C#N)=C(N)C(C#N)(C#N)C(Cc3ccccc3)C2C1 (configuration not stated) | 13.7 µM (inactive) | 3290 cells | 
27 | CC(C)(C)NC(=S)N/N=C\c1ccc(-c2ccc([N+](=O)[O-])cc2)o1 | 11.4 µM (inactive) | 3000 cells | 
28 | CCOC(=O)N1CCN(/C=C(\C#N)c2nc3ccccc3s2)CC1 | 11.7 µM (inactive) | 2980 cells | 
29 | CCCN1C(=O)S/C(=C/c2ccc(N3CCOCC3)o2)C1=O | 5.4 µM | 3210 cells | 
30 | CC(C)N1CC=C2C(C#N)=C(N)C(C#N)(C#N)C(c3ccccc3)C2C1 (configuration not stated) | 8.22 µM | 3040 cells | 
31 | O=[N+]([O-])c1ccc(N/N=C/c2ccc[nH]2)cc1 | 4.32 µM | 841 cells | 
32 | COc1ccc(CN2C(=O)/C(=C/c3ccc(-c4ccc(Cl)c(C(=O)O)c4)o3)SC2=S)cc1 | > 16 µM (inactive) | 3020 cells | 
33 | Cc1oc(C)c2c(=O)ccc3c(c12)OC(N)=C(C#N)C3c1ccc(F)cc1 (configuration not stated) | > 16 µM (inactive) | 2880 cells | 
34 | O=C(OCCN1C(=O)c2cccc3c(N4CCOCC4)ccc(c23)C1=O)c1ccc(Cl)cc1Cl | 6.84 µM | 1690 cells | 
35 | Cc1cccn2c(=O)c(/C=C3\SC(=S)NC3=O)c(NCCCN3CCOCC3)nc12 | 9.39 µM | 2700 cells | 
36 | COc1ccc2c(n1)Sc1nc3ccccc3nc1N2 | 6.69 µM | 3030 cells | 
37 | COC(=O)c1cc2c(-c3ccccc3)c(C)c3ccccn3c-2c1C(=O)OC | 11.3 µM (inactive) | 2900 cells | 
38 | Cc1csc(NC(=O)c2sc3nc(-c4cccs4)ccc3c2N)n1 | 15.7 µM (inactive) | 2840 cells | 
39 | N#C/C(=C/c1ccc(N2CCCCC2)o1)c1cccc(F)c1 | 5.32 µM | 1730 cells | 
40 | CCN(CC)c1ccc(/C=C(\C#N)C(=O)c2ccc(Br)cc2)cc1 | 5.14 µM | 2740 cells | 
41 | COc1ccc(C2C(C(C)=O)=C(C)N=c3s/c(=C\c4cc(C)n(C)c4C)c(=O)n32)c(OC)c1 (configuration not stated) | 6.06 µM | 3650 cells | 
42 | N#C/C(=C\N1CCN(Cc2ccc3c(c2)OCO3)CC1)c1nc2ccccc2s1 | 10.7 µM (inactive) | 3300 cells | 

Row | Compound | EC50 [1] | cell count [2] | z-score [2]
43 | COc1ccccc1N/C=C/c1onc(C)c1[N+](=O)[O-] | 7.9 µM | 3140 cells | 
44 | Cc1ccc(NS(=O)(=O)c2cc([N+](=O)[O-])ccc2N/N=C/c2sc(N3CCOCC3)nc2-c2ccccc2)c(C)c1 | 4.45 µM | 2790 cells | 
45 | O=C(O)c1ccccc1N/N=C/c1c(Sc2nnnn2-c2ccccc2)nc2ccccn2c1=O | 10.7 µM (inactive) | 3260 cells | 
46 | N#CC1=C(N)C(C#N)(C#N)[C@H](c2ccoc2)[C@H]2CN(Cc3ccccc3)CC=C12 | 10.3 µM (inactive) | 2630 cells | 
47 | CC(C)N1CC=C2C(C#N)=C(N)C(C#N)(C#N)[C@H](c3ccoc3)[C@H]2C1 | 6.74 µM | 2840 cells | 
48 | CCCN1C(=O)/C(=C/c2c(NCCCOC(C)C)nc3c(C)cccn3c2=O)SC1=S | > 16 µM (inactive) | 2790 cells | 
49 | Cc1cccc(N=Cc2[nH]c3ccc(Br)c(Cl)c3c2O)c1 | > 16 µM (inactive) | 3340 cells | 
50 | COc1ccc2c(C)cc(SCC(=O)N(C)C3CCS(=O)(=O)C3)nc2c1 (configuration not stated) | 9.63 µM | 3270 cells | 
51 | CN1CC=C2C(C#N)=C(N)C(C#N)(C#N)[C@H](c3ccoc3)[C@H]2C1 | > 16 µM (inactive) | 1690 cells | 
52 | O=C1c2cccc3c(N4CCCCC4)ccc(c23)C(=O)N1c1ccccc1O | 15.3 µM (inactive) | 3140 cells | 
53 | Cc1c(N=C2N=C(NC(=O)c3cccs3)c3ccccc32)c(=O)n(-c2ccccc2)n1C | 11.8 µM (inactive) | 2570 cells | 
54 | Cn1cc(/C=C2\SC(=S)N(NC(=O)c3ccccc3Cl)C2=O)c2ccccc21 | 13.9 µM (inactive) | 3740 cells | 
55 | Cc1nn(C)cc1N1C(=O)c2cccc3c(N)ccc(c23)C1=O | > 16 µM (inactive) | 2940 cells | 
56 | Cc1ccc(-c2cn3nc(-c4ccccc4)c(-c4ccccc4)nc3n2)cc1 | 6.02 µM | 3200 cells | 
57 | CNC(=O)c1c(NC(=O)c2ccc(S(=O)(=O)N3CCCc4ccccc43)cc2)sc2c1CCN(C)C2 | 8.08 µM | 3190 cells | 
58 | O=C(/C=C/c1ccc(N2CCC(c3ccccc3)=N2)cc1)c1ccccc1 | 5.99 µM | 2900 cells | 
59 | Oc1ccc(/C=N/Nc2ccnc3cc(Cl)ccc23)c(O)c1 | 10.3 µM (inactive) | 1690 cells | 
60 | CC(=O)Nc1cccc(C(=O)/C=C/c2ccc(N(C)C)cc2)c1 | 12 µM (inactive) | 2940 cells | 
61 | CC(=O)c1c(N2CCOCC2)[nH]c(-c2ccccc2)nc1=S | 1.05 µM | 3510 cells | 
62 | COc1cc(N2CCCC2)c(OC)cc1/C=C(/C#N)c1cccc(F)c1 | 6.47 µM | 2910 cells | 
63 | CCCCOc1ccc(-c2cc(C(F)(F)F)c(C#N)c(SCC(=O)O)n2)cc1 | 12.3 µM (inactive) | 3060 cells | 

Row | Compound | EC50 [1] | cell count [2] | z-score [2]
64 | COCCN1C(=O)/C(=C/c2ccc(N3CCCC3)cc2)SC1=S | 9.79 µM | 3330 cells | 
65 | N#C/C(=C/c1ccc(N2CCOCC2)o1)C(=O)Nc1ccccc1 | 6.7 µM | 3080 cells | 
66 | N#Cc1c(NC(=S)NC(=O)c2ccccc2)sc2c1CCN(CCc1ccccc1)C2 | 5.79 µM | 2330 cells | 
67 | Cc1ccc(CNc2ccc3c(c2)OCO3)cc1 | 6.18 µM | 2720 cells | 
68 | COc1cc(/C=C(\C#N)c2nc3ccccc3o2)ccc1O | 2.62 µM | 3540 cells | 
69 | CCCN1C=CC(=C/C=C(\C#N)C(=O)OCC)C=C1 | 6.81 µM | 2900 cells | 
70 | CCCN1C(=O)S/C(=C\c2ccc(N3CCOCC3)o2)C1=O | > 16 µM (inactive) | 194 cells | 
71 | Cc1cc2c(C(F)(F)F)cc(=O)oc2c2c1NCCC2 | 6.77 µM | 3250 cells | 
72 | N#Cc1cccc(NC(=O)CSc2ccc3c4c(cccc24)C(=O)c2ccccc2-3)c1 | 4.73 µM | 3090 cells | 
73 | Cc1ccc(/C(C#N)=C\c2ccc(N3CCOCC3)o2)cc1 | 10.3 µM (inactive) | 1110 cells | 
74 | O=[N+]([O-])c1ccc(N2N=C(c3ccco3)CC2c2ccccc2)cc1 (configuration not stated) | 6.38 µM | 2840 cells | 
75 | Nc1c(C(=O)c2ccccc2)sc2nsc(SCCN3CCCC3)c12 | 7.98 µM | 2210 cells | 
76 | Cc1nonc1NC(=O)CSc1nc2c(C)cccc2cc1C#N | 9.41 µM | 3270 cells | 
77 | Nc1ccc2c(c1)Cc1cc([N+](=O)[O-])ccc1-2 | 4.22 µM | 2910 cells | 
78 | Nc1c(C(=O)Nc2nc3ccccc3s2)sc2nc(-c3cccs3)ccc12 | 8.63 µM | 217 cells | 
79 | CCOC(=O)Cc1csc(NC(=O)c2sc3nc4c(C)cc(C)cc4cc3c2N)n1 | 10.9 µM (inactive) | 2560 cells | 
80 | CCc1ccc(NC(=O)c2cc(C(C)C)on2)cc1 |  | 3050 cells | -0.39 (inactive)
81 | CCOC(=O)/C(C#N)=C/C=C1\C=Cc2ccccc2N1CC |  | 2720 cells | -0.28 (inactive)
